From PubChem BioAssay AID651851 (Broad Institute, 2012) come the findings set out here.

Molecules are shown by their SMILES. Activity calls are given as the source filed them. The rule behind the calls is not given here.

System in the first experiment: not listed separately
The experiment can be described thus: growth inhibition of replicating M. tuberculosis, dose response, counter-screen, log phase (AID 651851). The note with it: Mycobacterium tuberculosis log-phase replicating growth inhibition. A general note: The purpose of a counterscreen is to sort out artefacts and off-target activity.
As for `Clc1ccc(-c2nnc(SCc3cn(Cc4ccccc4)nn3)o2)cc1`, the result was inactive.
Turning to `Fc1ccc(Cn2cc(CSc3nnc(-c4ccc(Cl)cc4)o3)nn2)cc1`, the result was inactive.

The subject of a further experiment is Mycobacterium tuberculosis log-phase replicating growth inhibition. Described as above.
Details: not given
Regarding `O=S(=O)(Cc1cn(Cc2ccccc2)nn1)c1nnc(-c2ccc(Cl)cc2)o1`, the IC90 was 62 µM.
As for `O=S(Cc1cn(Cc2ccccc2)nn1)c1nnc(-c2ccc(Cl)cc2)o1` (stereo not drawn), the IC90 was 62 µM.
As to `c1ccc(CSc2nnc(-c3ccccc3)o2)cc1`, the 90% effect concentration (IC90) is 250 µM.
As for `O=S(Cc1cn(Cc2ccc(F)cc2)nn1)c1nnc(-c2ccc(Cl)cc2)o1` (stereo not drawn), the concentration for an effect of 90% (IC90) was 62 µM.
`O=S(=O)(Cc1ccccc1)c1nnc(-c2ccccc2)o1`: the IC90 is 62 µM.
As for `O=S(Cc1ccccc1)c1nnc(-c2ccccc2)o1` (stereo not drawn), the IC90 is 31 µM.

For orientation: IC90 means the point of the concentration-response curve where the effect stands at 90%.
